Usually IC50 stands for the concentration that gives 50% inhibition.

In this experiment the target is T1, 17-beta-hydroxysteroid dehydrogenase type 1 (Homo sapiens, UniProt P14061).
T1 sequence (P14061 whole entry): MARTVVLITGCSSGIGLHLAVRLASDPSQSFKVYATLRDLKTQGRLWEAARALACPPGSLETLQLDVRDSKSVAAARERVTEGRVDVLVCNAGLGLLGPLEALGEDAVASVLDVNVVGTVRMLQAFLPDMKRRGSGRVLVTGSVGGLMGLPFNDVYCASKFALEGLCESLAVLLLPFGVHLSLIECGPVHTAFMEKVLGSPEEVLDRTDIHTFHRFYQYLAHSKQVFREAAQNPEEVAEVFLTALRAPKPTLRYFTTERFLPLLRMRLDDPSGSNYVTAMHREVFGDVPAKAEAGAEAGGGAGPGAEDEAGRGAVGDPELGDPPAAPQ
`O=C(c1cccc(O)c1)c1ccc(-c2cccc(O)c2)s1` yielded an IC50 of 69 nM.
`Cc1ccc(C(=O)c2ccc(-c3cccc(O)c3)s2)cc1O` came in with an IC50 of 46 nM.
With `N#Cc1cccc(S(=O)(=O)Nc2cccc(-c3c(O)ccc4cc(-c5cccc(O)c5)ccc34)c2)c1`, the IC50 was determined as 21 nM.
Compound `O=C(c1ccc(F)c(O)c1)c1cc2cc(O)ccc2s1` yielded a concentration for half-maximal inhibition (IC50) of 89 nM.
Consider `O=C(c1cccc(O)c1)c1ccc(-c2ccc(NS(=O)(=O)c3ccc(Br)cc3OC(F)(F)F)cc2)s1`, for which 169 nM corresponded to half-maximal inhibition (IC50).
Consider `N#Cc1cccc(S(=O)(=O)Nc2cccc(-c3ccc(C(=O)c4cccc(O)c4)s3)c2)c1`, for which the IC50 was determined as 23 nM.
Compound `O=C(Nc1cccc(-c2ccc(C(=O)c3cccc(O)c3)s2)c1)c1cccc(O)c1` displayed an IC50 of 33 nM.
With `N#Cc1ccc(S(=O)(=O)Nc2cccc(-c3ccc(C(=O)c4cccc(O)c4)s3)c2)cc1` the figure was 56 nM; with `COc1cccc(S(=O)(=O)Nc2cccc(-c3ccc(C(=O)c4cccc(O)c4)s3)c2)c1`, 35 nM.
The compound `Cc1ccccc1S(=O)(=O)Nc1cccc(-c2ccc(C(=O)c3cccc(O)c3)s2)c1` displayed a 50% inhibitory concentration (IC50) of 17 nM.
Regarding `Cc1ccc(S(=O)(=O)Nc2cccc(-c3ccc(C(=O)c4cccc(O)c4)s3)c2)cc1`, it took 12 nM to reach half-maximal inhibition (IC50).
`O=C(c1ccc(C(F)(F)F)c(O)c1)c1ccc(-c2cccc(O)c2)s1` gave an IC50 of 38 nM.
Regarding `O=C(c1cccc(O)c1)c1cc2ccc(O)cc2s1`, the IC50 worked out at 12 nM.

These data come from ChEMBL document CHEMBL3627664, “Towards the evaluation in an animal disease model: Fluorinated 17β-HSD1 inhibitors showing strong activity towards both the human and the rat enzyme” (Eur J Med Chem, 2015).
